We go through 6 compounds from ChEMBL document CHEMBL3632618, “The isolation and synthesis of a novel benzofuran compound from Tephrosia purpurea, and the synthesis of several related derivatives, which suppress histamine H1 receptor gene expression” (Bioorg Med Chem, 2015).

In the test the test system is HeLa. In words: Downregulation of PMA-induced H1R mRNA expressed in human HeLa cells incubated for 1 hr prior to PMA stimulation by RT-PCR method. Format: functional, cell-based.
[1] abbreviates: Homo sapiens, HeLa, read-out: IC50.

On to `COc1c(C(N)=O)ccc2occc12`, for which the IC50 stood at 75.3 µM under setting [1] and 83.7 µM (hela, read-out: IC50).

For the compound `COc1cc2occc2cc1C(N)=O`, the IC50 under setting [1] amounted to 49.1 µM.

In the case of `NC(=O)c1ccc2occc2c1O`, the IC50 result (hela) is given as “Not Active”.

For the compound `NC(=O)c1cc2ccoc2cc1O`, the IC50 under setting [1] was found to be 84.6 µM.

Take `COc1c(C(=O)O)ccc2occc12`: the IC50 entry (hela) was “Not Active”.

Consider `COc1cc2occc2cc1C(=O)O`, for which the IC50 result (hela) is on record as “Not Active”.

As a reminder, the IC50 is the concentration needed to halve the response being measured.
